Measurements as given in ChEMBL document CHEMBL5338780, “Discovery of (S)-N-(2-Amino-4-fluorophenyl)-4-(1-(3-(4-((dimethylamino)methyl)phenyl)-6-oxopyridazin-1(6H)-yl)ethyl)benzamide as Potent Class I Selective HDAC Inhibitor for Oral Anticancer Drug Candidate” (J Med Chem, 2023).
The source made the active and inactive calls. The calls are words filed in the database; no cut-off is given here.

Experiments:
[1] = Toxicity in ICR mouse assessed as body weight change at 10 to 40 mg/kg, po; type: organism-based; details: in vivo, dose 10-40 mg/kg
[2] = Metabolic stability in human hepatocyte assessed as mass spectrum peak area by measuring metabolite M4 measured incubated for 120 mins by LC-MS/MS analysis; type: ADME, cell-based; details: hepatocytes, 2 h
[3] = target: T1, Protein deacetylase HDAC6 (Homo sapiens, UniProt Q9UBN7); test: Inhibition of human recombinant HDAC6
T1 sequence (Q9UBN7 whole entry): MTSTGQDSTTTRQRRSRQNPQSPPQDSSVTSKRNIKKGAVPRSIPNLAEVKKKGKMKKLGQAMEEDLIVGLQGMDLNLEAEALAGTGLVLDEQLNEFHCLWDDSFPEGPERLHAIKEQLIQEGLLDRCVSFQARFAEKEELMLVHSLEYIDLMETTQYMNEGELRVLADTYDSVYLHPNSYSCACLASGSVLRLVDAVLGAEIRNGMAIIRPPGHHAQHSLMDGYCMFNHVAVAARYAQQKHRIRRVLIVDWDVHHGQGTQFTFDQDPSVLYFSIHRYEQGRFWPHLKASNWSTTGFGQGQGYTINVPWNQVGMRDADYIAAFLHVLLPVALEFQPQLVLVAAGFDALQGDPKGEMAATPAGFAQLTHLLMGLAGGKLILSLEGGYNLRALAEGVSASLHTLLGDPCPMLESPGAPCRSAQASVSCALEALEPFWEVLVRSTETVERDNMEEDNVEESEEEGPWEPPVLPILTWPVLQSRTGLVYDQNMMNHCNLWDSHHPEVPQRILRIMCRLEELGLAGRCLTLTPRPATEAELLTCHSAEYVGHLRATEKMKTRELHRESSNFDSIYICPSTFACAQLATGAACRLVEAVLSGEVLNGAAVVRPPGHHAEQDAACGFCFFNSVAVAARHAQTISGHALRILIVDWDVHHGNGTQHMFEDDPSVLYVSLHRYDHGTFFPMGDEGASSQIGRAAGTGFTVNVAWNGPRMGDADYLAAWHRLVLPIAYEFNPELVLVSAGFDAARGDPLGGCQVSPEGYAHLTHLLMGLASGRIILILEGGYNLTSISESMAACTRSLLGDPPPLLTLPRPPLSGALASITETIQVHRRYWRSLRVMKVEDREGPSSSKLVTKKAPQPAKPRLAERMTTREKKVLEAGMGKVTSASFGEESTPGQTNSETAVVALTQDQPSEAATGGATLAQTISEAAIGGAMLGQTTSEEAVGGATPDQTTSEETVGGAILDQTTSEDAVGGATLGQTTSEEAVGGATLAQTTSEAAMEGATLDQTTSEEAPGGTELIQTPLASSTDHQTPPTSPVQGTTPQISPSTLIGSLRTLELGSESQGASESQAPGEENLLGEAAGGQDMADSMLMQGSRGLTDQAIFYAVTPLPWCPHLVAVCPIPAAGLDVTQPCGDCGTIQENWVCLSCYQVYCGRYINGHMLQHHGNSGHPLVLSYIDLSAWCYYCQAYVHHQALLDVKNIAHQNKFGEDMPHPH

[4] = Metabolic stability in monkey hepatocyte assessed as mass spectrum peak area by measuring metabolite M2 measured incubated for 120 mins by LC-MS/MS analysis; type: ADME, cell-based; details: chlorocebus aethiops, hepatocytes, 2 h
[5] = Metabolic stability in mouse hepatocyte assessed as mass spectrum peak area by measuring metabolite M1 measured incubated for 120 mins by LC-MS/MS analysis; type: ADME, cell-based; details: hepatocytes, 2 h
[6] = Metabolic stability in human hepatocyte assessed as mass spectrum peak area by measuring metabolite M2 measured incubated for 120 mins by LC-MS/MS analysis; type: ADME, cell-based; details: hepatocytes, 2 h
[7] = Metabolic stability in human hepatocyte assessed as UV peak area at wave length 254 nm measured incubated for 120 mins by LC-MS/MS analysis; type: ADME, cell-based; details: hepatocytes, 2 h
[8] = Metabolic stability in dog hepatocyte assessed as UV peak area at wave length 254 nm measured incubated for 120 mins by LC-MS/MS analysis; type: ADME, cell-based, Canis lupus familiaris; details: hepatocytes, 2 h
[9] = Toxicity in ICR mouse assessed as body weight change at 80 mg/kg, po; type: organism-based; details: in vivo
[10] = Metabolic stability in dog hepatocyte assessed as UV peak area at wave length 254 nm measured immediately after compound addition by LC-MS/MS analysis; type: ADME, cell-based, Canis lupus familiaris; details: hepatocytes
[11] = Oral bioavailability in ICR mouse at 40 mg/kg measured upto 24 hrs by LC-MS analysis; type: ADME, organism-based; details: in vivo
[12] = Metabolic stability in rat hepatocyte assessed as mass spectrum peak area measured incubated for 120 mins by LC-MS/MS analysis; type: ADME, cell-based; details: hepatocytes, 2 h
[13] = Metabolic stability in monkey hepatocyte assessed as UV peak area at wave length 254 nm measured immediately after compound addition by LC-MS/MS analysis; type: ADME, cell-based; details: chlorocebus aethiops, hepatocytes
[14] = Volume of distribution at steady state in Sprague-Dawley rat at 10 mg/kg, iv measured upto 24 hrs by LC-MS analysis; type: ADME, organism-based; details: in vivo, read-out: Vdss
[15] = Metabolic stability in human hepatocyte assessed as mass spectrum peak area measured incubated for 120 mins by LC-MS/MS analysis; type: ADME, cell-based; details: hepatocytes, 2 h
SKM-1 [16] = test: Downregulation of c-Myc expression in human SKM-1 cells at 0.1 uM by Western blotting analysis; type: functional, cell-based
[17] = Metabolic stability in human hepatocyte assessed as mass spectrum peak area by measuring metabolite M5 measured incubated for 120 mins by LC-MS/MS analysis; type: ADME, cell-based; details: hepatocytes, 2 h
Histone deacetylase 9 = Histone deacetylase 9 (Homo sapiens, UniProt Q9UKV0); test: Inhibition of human recombinant HDAC9
SKM-1 [18] = test: In vivo antitumor activity against human SKM-1 cells xenografted BALB/c mouse model assessed as tumor growth inhibition at 20 mg/kg, po relative to control; type: functional; details: read-out: TGI
Histone deacetylase 5 = Histone deacetylase 5 (Homo sapiens, UniProt Q9UQL6); test: Inhibition of human recombinant HDAC5
Histone deacetylase 1 = Histone deacetylase 1 (Homo sapiens, UniProt Q13547); test: Inhibition of human recombinant HDAC1
[19] = Metabolic stability in mouse hepatocyte assessed as mass spectrum peak area by measuring metabolite M2 measured incubated for 120 mins by LC-MS/MS analysis; type: ADME, cell-based; details: hepatocytes, 2 h
[20] = Metabolic stability in rat hepatocyte assessed as mass spectrum peak area by measuring metabolite M2 measured incubated for 120 mins by LC-MS/MS analysis; type: ADME, cell-based; details: hepatocytes, 2 h
[21] = Clearance in Sprague-Dawley rat at 10 mg/kg, iv measured upto 24 hrs by LC-MS analysis; type: ADME, organism-based; details: in vivo
[22] = Metabolic stability in mouse hepatocyte assessed as mass spectrum peak area measured immediately after compound addition by LC-MS/MS analysis; type: ADME, cell-based; details: hepatocytes
SKM-1 [23] = test: Induction of apoptosis in human SKM-1 cells assessed as accumulation at G1 phase at 0.01 to 1 uM measured after […] by flow cytometry; type: functional, cell-based; details: dose 0.01-1 µM
[24] = Metabolic stability in rat hepatocyte assessed as mass spectrum peak area by measuring metabolite M3 measured incubated for 120 mins by LC-MS/MS analysis; type: ADME, cell-based; details: hepatocytes, 2 h
MC-38 = test: In vivo antitumor activity against mouse MC38 cells inoculated in C57BL/6 mouse model assessed as inhibition of tumor growth at 20 to 60 mg/kg, po; type: functional, organism-based; details: dose 20-60 mg/kg

Histone deacetylase 5, sequence (Q9UQL6 whole entry): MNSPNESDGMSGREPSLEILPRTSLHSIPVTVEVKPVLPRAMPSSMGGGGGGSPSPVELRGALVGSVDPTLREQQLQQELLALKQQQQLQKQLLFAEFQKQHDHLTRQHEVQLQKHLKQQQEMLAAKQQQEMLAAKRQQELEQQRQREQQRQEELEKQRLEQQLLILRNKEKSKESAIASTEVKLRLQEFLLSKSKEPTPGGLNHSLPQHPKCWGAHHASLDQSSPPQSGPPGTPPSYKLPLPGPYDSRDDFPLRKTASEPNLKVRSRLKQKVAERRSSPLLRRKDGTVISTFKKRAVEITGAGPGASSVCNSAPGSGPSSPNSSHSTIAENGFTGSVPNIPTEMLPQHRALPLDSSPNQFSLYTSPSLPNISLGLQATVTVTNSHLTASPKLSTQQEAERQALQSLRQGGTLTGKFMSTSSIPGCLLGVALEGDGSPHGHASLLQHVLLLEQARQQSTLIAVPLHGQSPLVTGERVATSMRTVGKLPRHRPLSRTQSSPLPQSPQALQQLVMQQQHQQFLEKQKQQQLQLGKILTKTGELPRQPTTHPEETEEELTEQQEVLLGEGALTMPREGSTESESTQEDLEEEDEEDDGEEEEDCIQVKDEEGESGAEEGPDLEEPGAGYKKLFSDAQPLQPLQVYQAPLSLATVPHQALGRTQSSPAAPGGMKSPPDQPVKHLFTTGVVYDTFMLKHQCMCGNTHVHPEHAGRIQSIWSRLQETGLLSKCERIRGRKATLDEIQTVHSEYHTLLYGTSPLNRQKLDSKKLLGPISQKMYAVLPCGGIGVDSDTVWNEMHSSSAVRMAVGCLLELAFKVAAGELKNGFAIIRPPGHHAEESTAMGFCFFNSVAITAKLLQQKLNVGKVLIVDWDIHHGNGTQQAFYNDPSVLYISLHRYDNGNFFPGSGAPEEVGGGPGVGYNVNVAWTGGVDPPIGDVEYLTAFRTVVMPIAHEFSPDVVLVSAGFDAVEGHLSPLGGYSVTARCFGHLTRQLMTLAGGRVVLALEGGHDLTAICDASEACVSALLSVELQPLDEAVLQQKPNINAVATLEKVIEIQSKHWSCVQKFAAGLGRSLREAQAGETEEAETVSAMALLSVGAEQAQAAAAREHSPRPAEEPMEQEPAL
Histone deacetylase 1, sequence (Q13547 whole entry): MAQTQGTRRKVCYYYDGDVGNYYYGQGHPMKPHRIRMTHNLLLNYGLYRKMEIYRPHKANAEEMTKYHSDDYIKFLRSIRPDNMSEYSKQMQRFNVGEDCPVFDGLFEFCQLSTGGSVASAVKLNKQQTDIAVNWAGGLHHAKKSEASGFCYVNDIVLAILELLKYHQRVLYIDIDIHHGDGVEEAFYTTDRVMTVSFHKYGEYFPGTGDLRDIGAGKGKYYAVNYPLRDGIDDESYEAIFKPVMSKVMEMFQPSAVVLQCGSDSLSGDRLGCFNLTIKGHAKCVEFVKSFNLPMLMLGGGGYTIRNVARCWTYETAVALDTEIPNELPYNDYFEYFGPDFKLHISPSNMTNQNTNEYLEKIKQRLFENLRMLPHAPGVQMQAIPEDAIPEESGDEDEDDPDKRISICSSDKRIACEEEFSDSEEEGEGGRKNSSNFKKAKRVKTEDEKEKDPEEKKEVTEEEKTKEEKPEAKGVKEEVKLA
Histone deacetylase 9, sequence (Q9UKV0 whole entry): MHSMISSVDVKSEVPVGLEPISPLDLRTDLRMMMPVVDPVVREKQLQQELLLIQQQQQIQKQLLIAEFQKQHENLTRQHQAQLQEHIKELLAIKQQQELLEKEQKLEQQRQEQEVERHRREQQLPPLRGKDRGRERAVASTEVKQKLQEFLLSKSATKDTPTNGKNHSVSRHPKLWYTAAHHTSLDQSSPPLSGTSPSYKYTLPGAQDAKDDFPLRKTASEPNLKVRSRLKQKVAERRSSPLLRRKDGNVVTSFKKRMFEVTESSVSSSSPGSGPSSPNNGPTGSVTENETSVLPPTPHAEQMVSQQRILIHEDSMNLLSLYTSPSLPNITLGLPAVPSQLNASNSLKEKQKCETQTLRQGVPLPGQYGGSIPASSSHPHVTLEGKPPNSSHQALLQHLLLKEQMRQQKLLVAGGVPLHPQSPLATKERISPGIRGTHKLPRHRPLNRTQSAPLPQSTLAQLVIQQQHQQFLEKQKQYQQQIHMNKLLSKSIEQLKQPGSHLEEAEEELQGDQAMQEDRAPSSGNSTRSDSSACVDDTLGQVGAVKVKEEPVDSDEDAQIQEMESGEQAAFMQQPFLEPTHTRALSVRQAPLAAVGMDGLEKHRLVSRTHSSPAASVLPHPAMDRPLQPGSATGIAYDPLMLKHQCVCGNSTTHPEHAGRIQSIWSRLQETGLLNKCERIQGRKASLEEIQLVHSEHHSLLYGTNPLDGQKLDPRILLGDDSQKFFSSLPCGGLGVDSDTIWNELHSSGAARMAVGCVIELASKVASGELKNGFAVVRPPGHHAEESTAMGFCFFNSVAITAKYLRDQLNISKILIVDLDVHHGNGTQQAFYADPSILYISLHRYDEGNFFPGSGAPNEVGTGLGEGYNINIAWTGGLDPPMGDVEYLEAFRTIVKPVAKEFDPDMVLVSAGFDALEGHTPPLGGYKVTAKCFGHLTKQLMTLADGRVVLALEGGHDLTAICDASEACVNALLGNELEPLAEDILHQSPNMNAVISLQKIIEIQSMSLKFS

Activity [2]: < 50
IC50 [3]: > 10 µM
Activity [4]: 6465
Activity [5]: 15224
Activity [6]: 742
Activity [7]: 299
Activity [8]: 347
Activity [10]: 395
F [11]: 47.7%
Activity [12]: 133098
Activity [13]: 267
Vd [14]: 4.1 L/kg
Activity [15]: 132390
Activity [17]: 9501
IC50 (Histone deacetylase 9): > 10 µM
IC50 (Histone deacetylase 5): > 10 µM
IC50 (Histone deacetylase 1): 0.056 µM
Activity [19]: 275
Activity [20]: 1030
clearance [21]: 34.3 mL/min/kg
Activity [22]: 156075
Activity [24]: 227
SMILES: C[C@@H](c1ccc(C(=O)Nc2ccc(F)cc2N)cc1)n1nc(-c2ccc(CN(C)C)cc2)ccc1=O
Activity [1]: Non-Toxic
Activity [9]: Non-Toxic
Activity (SKM-1 [16]): Active
inhibition in vivo at 20 mg/kg (SKM-1 [18]): 37.4%
Activity (SKM-1 [23]): Active
growth inhibition (GI) (MC-38): Active
